Test results taken from ChEMBL document CHEMBL6096661, “Synthesis, biological evaluation and mechanism study of a novel indole-pyridine chalcone derivative as antiproliferative agent against tumor cells through dual targeting tubulin and HK2” (Eur J Med Chem, 2025).
Activity calls are given as the source filed them. The rule behind the calls is not given here.

How the values were obtained:
[1] = system: MDA-MB-231; assay: Antiproliferative activity against human MDA-MB-231 cells assessed as inhibition of cell proliferation incubated for 3 days by CCK-8 assay; assay type: functional, cell-based; settings: MDA-MB-231, 72 h
[2] = system: MDA-MB-231; assay: Induction of ROS generation in human MDA-MB-231 cells assessed as increase in green fluorescence at 0.5 uM incubated for 24 hrs by DCFH-DA staining based flow cytometric analysis (reference value: 62.3 %); assay type: functional
[3] = system: MDA-MB-231; assay: Induction of morphological changes in human MDA-MB-231 assessed as loss of adhesion properties at 0.5 to 2 uM incubated for 48 hrs by microscopic analysis; assay type: functional, cell-based; settings: dose 0.5-2 µM
[4] = Cytotoxicity against green monkey Vero cells assessed as inhibition of cell growth incubated for 48 hrs by CCK-8 assay; assay type: toxicity, cell-based; settings: African green monkey (Chlorocebus sabaeus)
[5] = Selectivity ratio of IC50 for cytotoxicity against green monkey Vero cells to IC50 for antiproliferative activity against human LoVo cells; assay type: toxicity, cell-based; settings: Vero cells versus LoVo cells, read-out: Ratio IC50
[6] = system: MDA-MB-231; assay: Induction of apoptosis in human MDA-MB-231 cells assessed as decrease in Cyclin A level by Western blotting analysis; assay type: functional, cell-based; settings: dose 0.5-2 µM
[7] = system: MDA-MB-231; assay: Induction of apoptosis in human MDA-MB-231 cells assessed as upregulation of cleaved-caspase 3 level by Western blotting analysis; assay type: functional, cell-based; settings: dose 0.5-2 µM
[8] = target: T1, Hexokinase-2 (Homo sapiens) (UniProt P52789); assay: Mixed inhibition of human HK2 transfected in Escherichia coli BL21 (DE) assessed as increase in Km with decrease in Vmax at 0.25 to 4 uM using glucose as substrate by Lineweaver-Burk plot analysis; settings: dose 0.25-4 µM
T1 sequence (whole entry): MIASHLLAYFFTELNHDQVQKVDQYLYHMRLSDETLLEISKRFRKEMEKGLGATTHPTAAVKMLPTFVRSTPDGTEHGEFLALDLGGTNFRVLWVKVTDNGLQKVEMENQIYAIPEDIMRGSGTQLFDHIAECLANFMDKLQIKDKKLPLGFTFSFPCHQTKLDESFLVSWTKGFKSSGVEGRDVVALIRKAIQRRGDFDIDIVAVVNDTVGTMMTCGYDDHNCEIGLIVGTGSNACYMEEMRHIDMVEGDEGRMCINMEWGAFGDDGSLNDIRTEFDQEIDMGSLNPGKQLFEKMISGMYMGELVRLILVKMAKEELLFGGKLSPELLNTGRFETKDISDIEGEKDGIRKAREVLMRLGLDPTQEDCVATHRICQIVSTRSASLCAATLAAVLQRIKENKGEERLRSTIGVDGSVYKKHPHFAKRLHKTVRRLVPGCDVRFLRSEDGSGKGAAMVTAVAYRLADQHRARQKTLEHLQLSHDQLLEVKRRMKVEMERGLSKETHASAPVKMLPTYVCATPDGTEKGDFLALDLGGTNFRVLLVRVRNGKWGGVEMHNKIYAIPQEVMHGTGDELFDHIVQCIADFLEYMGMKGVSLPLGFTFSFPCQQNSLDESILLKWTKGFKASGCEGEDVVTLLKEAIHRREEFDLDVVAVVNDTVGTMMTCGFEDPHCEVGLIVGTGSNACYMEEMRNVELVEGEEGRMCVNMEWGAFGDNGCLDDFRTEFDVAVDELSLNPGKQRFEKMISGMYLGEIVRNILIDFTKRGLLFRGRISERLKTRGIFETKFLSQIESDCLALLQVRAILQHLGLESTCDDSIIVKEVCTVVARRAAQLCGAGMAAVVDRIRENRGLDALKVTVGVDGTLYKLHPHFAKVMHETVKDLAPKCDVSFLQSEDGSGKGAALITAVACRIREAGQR

[9] = system: MDA-MB-231; assay: Induction of morphological changes in human MDA-MB-231 assessed as cell contraction at 0.5 to 2 uM incubated for 48 hrs by microscopic analysis; assay type: functional, cell-based; settings: dose 0.5-2 µM
[10] = system: ASPC1; assay: Antiproliferative activity against human ASPC1 cells assessed as inhibition of cell growth incubated for 48 hrs by CCK-8 assay; assay type: functional, cell-based; settings: ASPC1, 48 h
[11] = system: MDA-MB-231; assay: Inhibition of colony formation in human MDA-MB-231 cells assessed as reduction in number of colonies at 1 uM incubated for 8 days by crystal violet staining based assay; assay type: functional, cell-based; settings: time 8.0 day
[12] = target: T2, Tubulin (Homo sapiens) (UniProt P68371+Q9H4B7+P0DPH7+P68366+Q13509+Q71U36+P04350+Q3ZCM7+P07437+P68363+Q9BQE3+Q6PEY2+Q13885+Q9BVA1+Q9BUF5); assay: Disruption of microtubule network in human MDA-MB-231 cells assessed as punctate fiber structure at 1 to 2 uM incubated for 24 hrs by DAPI staining based fluorescence microscopic analysis; assay type: cell-based; settings: dose 1-2 µM
[13] = system: HCT-116; assay: Antiproliferative activity against human HCT-116 cells assessed as inhibition of cell proliferation incubated for 4 days by CCK-8 assay; assay type: functional, cell-based; settings: HCT-116, 96 h
[14] = system: Mitochondrial membrane; assay: […] in human MDA-MB-231 cells at 2.0 uM by JC-1 fluorescent probe based flow cytometric analysis (reference value: 2.56 %)
[15] = system: MDA-MB-231; assay: Antiproliferative activity against human MDA-MB-231 cells assessed as reduction in cell proliferation incubated for 48 hrs by CCK-8 assay; assay type: functional, cell-based; settings: MDA-MB-231, 48 h
[16] = system: LoVo; assay: Antiproliferative activity against human LoVo cells assessed as inhibition of cell proliferation incubated for 4 days by CCK-8 assay; assay type: functional, cell-based; settings: 96 h
[17] = target: T1, Hexokinase-2 (Homo sapiens); assay: Binding affinity to human HK2 transfected in Escherichia coli BL21 (DE) assessed as HK2 stabilization at 4 uM at 37 to 55 degreeC incubated for 10 to 30 mins by CETSA; settings: time 10-30 min
[18] = system: HCT-116; assay: Antiproliferative activity against human HCT-116 cells assessed as inhibition of cell proliferation incubated for 1 day by CCK-8 assay; assay type: functional, cell-based; settings: HCT-116, 24 h
[19] = system: MDA-MB-231; assay: Induction of cell cycle arrest in human MDA-MB-231 cells assessed as decreased proportion of cells at G1 phase at 0.5 to 2 uM by flow cytometric analysis; assay type: functional, cell-based; settings: dose 0.5-2 µM
[20] = system: MDA-MB-231; assay: Induction of apoptosis in human MDA-MB-231 cells assessed as pyknotic bright nuclei at 0.5 to 2 uM incubated for 24 hrs by Hoechst 33342 staining based fluorescence microscopic analysis; assay type: functional, cell-based; settings: dose 0.5-2 µM
[21] = system: LoVo; assay: Antiproliferative activity against human LoVo cells assessed as inhibition of cell growth incubated for 48 hrs by CCK-8 assay; assay type: functional, cell-based
[22] = target: T2, Tubulin (Homo sapiens); assay: Disruption of microtubule network in human MDA-MB-231 cells assessed as reduced microtubule network at 1 to 2 uM incubated for 24 hrs by DAPI staining based fluorescence microscopic analysis; assay type: cell-based; settings: dose 1-2 µM
[23] = system: LoVo; assay: Antiproliferative activity against human LoVo cells assessed as inhibition of cell proliferation incubated for 3 days by CCK-8 assay; assay type: functional, cell-based; settings: 72 h
[24] = system: BXPC-3; assay: Antiproliferative activity against human BXPC-3 cells assessed as inhibition of cell growth incubated for 48 hrs by CCK-8 assay; assay type: functional, cell-based; settings: BXPC-3, 48 h
[25] = system: MDA-MB-231; assay: Antiproliferative activity against human MDA-MB-231 cells assessed as inhibition of cell proliferation incubated for 4 days by CCK-8 assay; assay type: functional, cell-based; settings: MDA-MB-231, 96 h

- IC50 [1]: 561 nM
- inhibition [8]: Active
- IC50 [10]: 1110 nM
- Activity [12]: Active
- IC50 [13]: 299 nM
- Activity [14]: 32.3%
- IC50 [15]: 707 nM
- IC50 [16]: 629 nM
- Activity [17]: Active
- IC50 [18]: 1930 nM
- IC50 [21]: 446 nM
- Activity [22]: Active
- IC50 [23]: 551 nM
- IC50 [24]: 1270 nM
- IC50 [25]: 938 nM
SMILES: O=C(/C=C/c1cn(S(=O)(=O)c2ccc([N+](=O)[O-])cc2)c2ccc(N3CCOCC3)cc12)c1cccnc1
- Activity [2]: 88.4%
- Activity [3]: Active
- IC50 at 48 h [4]: 2320 nM
- selectivity ratio [5]: 5
- Activity [6]: Dose-dependent-effect
- Activity [7]: Dose-dependent-effect
- Activity [9]: Active
- inhibition [11]: Active
- Activity [19]: Active
- Activity [20]: Active
